Assay results published in US20030211072A1, “Compositions with enhanced oral bioavailability” (priority 2000, published 2003).
“And” between values parts separate entries of the source, which are not always exact repeats. Equal entries are not always repeated.

Legend:
[1] = tested on: rat everted gut sacs; assay: Gut sac viability (active glucose transport)
[2] = tested on: rat everted gut sacs; conditions: male, Wistar
[3] = In vivo biodistribution of [3H]vinblastine (100 ng/kg) after oral gavage, alone or co-administered with ascophyllum, xanthan gum or polidocanol; conditions: for AUC Control of [3H]Vinblastine: 100 ng/kg alone
[4] = tested on: rat everted gut sacs; assay: Everted rat intestinal sacs: tissue uptake and serosal transfer of [3H]vinblastine, alone or with verapamil/enhancer
[5] = tested on: rat everted gut sacs; assay: Everted rat intestinal sacs: tissue uptake and serosal transfer of [14C]doxorubicin, alone or with verapamil/enhancer
[6] = 5 min-24 h, vinblastine 100 ng/kg alone (control)
[7] = [3H]vinblastine 100 ng/kg alone, after 5 hours
[8] = [3H]vinblastine 100 ng/kg alone, after 24 hours
[9] = [3H]vinblastine 1 ng/ml alone (Control), 90 min
[10] = [3H]vinblastine 1 ng/ml, verapamil 0 ng/ml, 60 min
[11] = [3H]vinblastine (−) verapamil, 0 min
[12] = [3H]vinblastine (−) verapamil, 30 min
[13] = [3H]vinblastine (−) verapamil, 60 min
[14] = [3H]vinblastine (−) verapamil, 90 min
[15] = [3H]vinblastine (−) verapamil, 120 min
[16] = [3H]vinblastine alone 0.1 μg/ml, 60 min
[17] = [3H]vinblastine alone 0.3 μg/ml, 60 min
[18] = [3H]vinblastine alone 0.7 μg/ml, 60 min
[19] = [3H]vinblastine alone 1.0 μg/ml, 60 min
[20] = [14C]doxorubicin 1 ng/ml alone (Control), 90 min
[21] = [14C]doxorubicin 1 ng/ml, verapamil 0 ng/ml, 60 min
[22] = [14C]doxorubicin 10 ng/ml alone (Control), 90 min
[23] = [14C]doxorubicin 100 ng/ml alone (Control), 90 min
[24] = [14C]doxorubicin (−) verapamil, 0 min
[25] = [14C]doxorubicin (−) verapamil, 30 min
[26] = [14C]doxorubicin (−) verapamil, 60 min
[27] = [14C]doxorubicin (−) verapamil, 90 min
[28] = [14C]doxorubicin (−) verapamil, 120 min
[29] = [14C]doxorubicin alone 1 ng/ml, 60 min
[30] = [14C]doxorubicin alone 3 ng/ml, 60 min
[31] = [14C]doxorubicin alone 10 ng/ml, 60 min
[32] = [14C]doxorubicin alone 100 ng/ml, 60 min
[33] = [14C]doxorubicin alone 300 ng/ml, 60 min

COc1ccc(CCN(C)CCCC(C#N)(c2ccc(OC)c(OC)c2)C(C)C)cc1OC (stereo not shown) [Verapamil, verapamil]
tissue viability (glucose actively transported) ([1]; verapamil, exception: 40 μg/ml combined with 1 ng/ml [3H]vinblastine): good tissue viability
effect on tissue uptake and serosal transfer of [14C]doxorubicin [2]: significantly (p<0.05, unpaired student T-test) increased
increase of [14C]doxorubicin uptake and accumulation into the tissue [2]: 2 fold

CC[C@]1(O)C[C@@H]2CN(CCc3c([nH]c4ccccc34)[C@@](C(=O)OC)(c3cc4c(cc3OC)N(C)[C@H]3[C@@](O)(C(=O)OC)[C@H](OC(C)=O)[C@]5(CC)C=CCN6CC[C@]43[C@@H]65)C2)C1 [[^3H]Vinblastine, vinblastine]
tissue viability (glucose actively transported) ([1]; [3H]vinblastine, exception: concentrations higher than 1 ng/ml): good tissue viability
AUC Control of [^3H]Vinblastine, Blood [3, 6]: 53.47 % Dose/organ weight
AUC Control of [^3H]Vinblastine, Cecum [3, 6]: 20.20 % Dose/organ weight
AUC Control of [^3H]Vinblastine, Faeces [3, 6]: 4.58 % Dose/organ weight
AUC Control of [^3H]Vinblastine, Heart [3, 6]: 1.80 % Dose/organ weight
AUC Control of [^3H]Vinblastine, Kidney [3, 6]: 0.98 % Dose/organ weight
AUC Control of [^3H]Vinblastine, Large Intestinal Wash [3, 6]: 6.46 % Dose/organ weight
AUC Control of [^3H]Vinblastine, Large Intestine [3, 6]: 1.08 % Dose/organ weight
AUC Control of [^3H]Vinblastine, Liver [3, 6]: 4.36 % Dose/organ weight
AUC Control of [^3H]Vinblastine, Lung [3, 6]: 1.54 % Dose/organ weight
AUC Control of [^3H]Vinblastine, Small Intestinal Wash [3, 6]: 36.66 % Dose/organ weight
AUC Control of [^3H]Vinblastine, Small Intestine [3, 6]: 1.69 % Dose/organ weight
AUC Control of [^3H]Vinblastine, Spleen [3, 6]: 2.78 % Dose/organ weight
AUC Control of [^3H]Vinblastine, Stomach [3, 6]: 5.34 % Dose/organ weight
AUC Control of [^3H]Vinblastine, Urine [3, 6]: 1.79 % Dose/organ weight
AUC Control of [3H]Vinblastine ([3]; Blood, 5 min-24 h): 53.47 % Dose/organ weight
AUC Control of [3H]Vinblastine ([3]; Cecum, 5 min-24 h): 20.20 % Dose/organ weight
AUC Control of [3H]Vinblastine ([3]; Faeces, 5 min-24 h): 4.58 % Dose/organ weight
AUC Control of [3H]Vinblastine ([3]; Heart, 5 min-24 h): 1.80 % Dose/organ weight
AUC Control of [3H]Vinblastine ([3]; Kidney, 5 min-24 h): 0.98 % Dose/organ weight
AUC Control of [3H]Vinblastine ([3]; Large Intestinal Wash, 5 min-24 h): 6.46 % Dose/organ weight
AUC Control of [3H]Vinblastine ([3]; Large Intestine, 5 min-24 h): 1.08 % Dose/organ weight
AUC Control of [3H]Vinblastine ([3]; Liver, 5 min-24 h): 4.36 % Dose/organ weight
AUC Control of [3H]Vinblastine ([3]; Lung, 5 min-24 h): 1.54 % Dose/organ weight
AUC Control of [3H]Vinblastine ([3]; Small Intestinal Wash, 5 min-24 h): 36.66 % Dose/organ weight
AUC Control of [3H]Vinblastine ([3]; Small Intestine, 5 min-24 h): 1.69 % Dose/organ weight
AUC Control of [3H]Vinblastine ([3]; Spleen, 5 min-24 h): 2.78 % Dose/organ weight
AUC Control of [3H]Vinblastine ([3]; Stomach, 5 min-24 h): 5.34 % Dose/organ weight
AUC Control of [3H]Vinblastine ([3]; Urine, 5 min-24 h): 1.79 % Dose/organ weight
levels in blood over the time course ([3]; [3H]vinblastine 100 ng/kg alone, 5 min-24 h): remained constant
% of the dose in the stomach ([3]; [3H]vinblastine 100 ng/kg alone, after 1 hour): 1.2-1.6%
% found in the cecum [3, 7]: 1.7±0.3%
% found in the faeces [3, 7]: 0.33±0.03%
% in the blood [3, 8]: 3%
% in the heart [3, 8]: 0.7%
Serosal transfer [4, 9]: 0.006 ng/mg of protein
Tissue uptake [4, 9]: 0.061 + ng/mg of protein and 0.061 ng/mg of protein
Total uptake [4, 9]: 0.067 ng/mg of protein
Serosal transfer [4, 10]: 0.002 ± 0.000 ng/mg of protein
Tissue uptake [4, 10]: 0.032 ± 0.005 ng/mg of protein
Serosal transfer [4, 11]: 0.000 ng/mg of protein
Tissue uptake [4, 11]: 0.001 ng/mg of protein
Total uptake [4, 11]: 0.001 ng/mg of protein
Serosal transfer [4, 12]: 0.002 ng/mg of protein
Tissue uptake [4, 12]: 0.005 ng/mg of protein
Total uptake [4, 12]: 0.007 ng/mg of protein
Serosal transfer [4, 13]: 0.003 ng/mg of protein
Tissue uptake [4, 13]: 0.032 ng/mg of protein
Total uptake [4, 13]: 0.035 ng/mg of protein
Serosal transfer [4, 14]: 0.006 ng/mg of protein
Tissue uptake [4, 14]: 0.049 ng/mg of protein
Total uptake [4, 14]: 0.055 ng/mg of protein
Serosal transfer [4, 15]: 0.008 ng/mg of protein
Tissue uptake [4, 15]: 0.050 ng/mg of protein
Total uptake [4, 15]: 0.058 ng/mg of protein
Serosal transfer [4, 16]: 0.000 ± 0.000 ng/mg of protein
Tissue uptake [4, 16]: 0.009 ± 0.000 ng/mg of protein
Serosal transfer [4, 17]: 0.001 ± 0.000 ng/mg of protein
Tissue uptake [4, 17]: 0.011 ± 0.001 ng/mg of protein
Serosal transfer [4, 18]: 0.002 ± 0.001 ng/mg of protein
Tissue uptake [4, 18]: 0.017 ± 0.001 ng/mg of protein
Serosal transfer [4, 19]: 0.003 ± 0.001 ng/mg of protein
Tissue uptake [4, 19]: 0.029 ± 0.007 ng/mg of protein

COc1cccc2c1C(=O)c1c(O)c3c(c(O)c1C2=O)C[C@@](O)(C(=O)CO)C[C@@H]3O[C@H]1C[C@H](N)[C@H](O)[C@H](C)O1 [[^14C]Doxorubicin, doxorubicin]
Serosal transfer [5, 20]: 0.03 ± 0.00 ng/mg of protein
Tissue uptake [5, 20]: 0.02 ± 0.00 ng/mg of protein
Total uptake [5, 20]: 0.05 ± 0.01 ng/mg of protein
Serosal transfer [5, 21]: 0.010 ± 0.000 ng/mg of protein
Tissue uptake [5, 21]: 0.006 ± 0.000 ng/mg of protein
Serosal transfer [5, 22]: 0.05 ± 0.00 ng/mg of protein
Tissue uptake [5, 22]: 0.19 ± 0.03 ng/mg of protein
Total uptake [5, 22]: 0.24 ± 0.03 ng/mg of protein
Serosal transfer [5, 23]: 0.05 ± 0.07 ng/mg of protein
Tissue uptake [5, 23]: 0.75 ± 0.13 ng/mg of protein
Total uptake [5, 23]: 1.25 ± 0.07 ng/mg of protein
Serosal transfer [5, 24]: 0.000 ng/mg of protein
Tissue uptake [5, 24]: 0.001 ng/mg of protein
Total uptake [5, 24]: 0.001 ng/mg of protein
Serosal transfer [5, 25]: 0.008 ng/mg of protein
Tissue uptake [5, 25]: 0.005 ng/mg of protein
Total uptake [5, 25]: 0.013 ng/mg of protein
Serosal transfer [5, 26]: 0.017 ng/mg of protein
Tissue uptake [5, 26]: 0.007 ng/mg of protein
Total uptake [5, 26]: 0.024 ng/mg of protein
Serosal transfer [5, 27]: 0.027 ng/mg of protein
Tissue uptake [5, 27]: 0.025 ng/mg of protein
Total uptake [5, 27]: 0.052 ng/mg of protein
Serosal transfer [5, 28]: 0.024 ng/mg of protein
Tissue uptake [5, 28]: 0.030 ng/mg of protein
Total uptake [5, 28]: 0.054 ng/mg of protein
Serosal transfer [5, 29]: 0.0017 ± 0.002 ng/mg of protein
Tissue uptake [5, 29]: 0.007 ± 0.005 ng/mg of protein
Serosal transfer [5, 30]: 0.029 ± 0.005 ng/mg of protein
Tissue uptake [5, 30]: 0.082 ± 0.015 ng/mg of protein
Serosal transfer [5, 31]: 0.193 ± 0.028 ng/mg of protein
Tissue uptake [5, 31]: 0.393 ± 0.078 ng/mg of protein
Serosal transfer [5, 32]: 1.131 ± 0.500 ng/mg of protein
Tissue uptake [5, 32]: 5.598 ± 1.280 ng/mg of protein
Serosal transfer [5, 33]: 3.375 ± 0.900 ng/mg of protein
Tissue uptake [5, 33]: 25.734 ± 3.668 ng/mg of protein
serosal transfer time course ([5]; [14C]doxorubicin, levels plateaued after 90 min): only linear for 90 min
